IC50 data for two molecules are collected here from BindingDB's records for doi:10.1021/jm00063a011 (Kyowa Hakko Kogyo, 1993).

Assay [1] addresses Thromboxane-A synthase (Bos taurus). The experiment in a line: Activity against TXA2 synthase in bovine platelet microsome.
Experiment in assay [2]: as above

In turn, `C/C(=C\c1ccc(Cc2cccnc2)cc1)C(=O)O` [Sodium; (E)-2-methyl-3-(4-pyridin-3-ylmethyl-phenyl)-acrylate] registered an IC50 in assay [1] of 4.3 nM.

With `O=C(O)c1ccc2c(c1)C(SCc1cccnc1)c1ccccc1CO2` (stereo not drawn) [11-(Pyridin-3-ylmethylsulfanyl)-6,11-dihydro-dibenzo[b,e]oxepine-2-carboxylic acid], the values for the IC50 in assay [2] and in assay [1] were 400 nM and 4 nM, respectively.

What is called IC50 is the concentration that gives 50% inhibition. Lower therefore signals greater potency in that assay.
